According to ChEMBL document CHEMBL1201862, “PubChem BioAssay data set” (2004):
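Cells were grown in 96-well plates and exposed to each compound for 48 hours at five concentrations; endpoints were interpolated linearly between bracketing concentrations, or set to the highest concentration if not reached. GI50: concentration for 50% inhibition of growth.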 Calls of active or inactive are those of the source. Cut-off read from the data, not from the text of the source: active = GI50 up to about 1.1 µM and inactive = higher.

Columns and labels:
Assay in all cases: growth of human tumour cells (NCI), 48 h
UACC-62 = tested on: UACC-62
DMS-114 = tested on: DMS-114
COLO 205 = tested on: COLO 205
NCI-H522 = tested on: NCI-H522
SF-295 = tested on: SF-295
MOLT-4 = tested on: MOLT-4
KM12 = tested on: KM12
HL-60 = tested on: HL-60
HOP-92 = tested on: HOP-92
Malme-3M = tested on: Malme-3M
OVCAR-3 = tested on: OVCAR-3
ACHN = tested on: ACHN
NCI-H226 = tested on: NCI-H226
SK-MEL-5 = tested on: SK-MEL-5
SN12C = tested on: SN12C
TK-10 = tested on: TK-10
EKVX = tested on: EKVX
DU-145 = tested on: DU-145
NCI/ADR-RES = tested on: NCI/ADR-RES
MDA-MB-231 = tested on: MDA-MB-231

Structure (SMILES) | GI50 (UACC-62) | GI50 (DMS-114) | GI50 (COLO 205) | GI50 (NCI-H522) | GI50 (SF-295) | GI50 (MOLT-4) | GI50 (KM12) | GI50 (HL-60) | GI50 (HOP-92) | GI50 (Malme-3M) | GI50 (OVCAR-3) | GI50 (ACHN) | GI50 (NCI-H226) | GI50 (SK-MEL-5) | GI50 (SN12C) | GI50 (TK-10) | GI50 (EKVX) | GI50 (DU-145) | GI50 (NCI/ADR-RES) | GI50 (MDA-MB-231)
CCn1c2c(c3ccccc31)[C@@H](c1ccc(Cl)cc1)CC1C(=O)N(c3ccccc3)C(=O)C21 (stereo partly specified) | 51.2 µM (inactive) | 46.8 µM (inactive) | > 100 µM (inactive) | 80.2 µM (inactive) | 59.3 µM (inactive) | 42.7 µM (inactive) | > 100 µM (inactive) | 16.4 µM (inactive) | 27.7 µM (inactive) | 70.6 µM (inactive) | 55 µM (inactive) | 58.6 µM (inactive) | 45.6 µM (inactive) | > 100 µM (inactive) | 75.5 µM (inactive) | > 100 µM (inactive) | > 100 µM (inactive) | – | – | –
CC1=C(c2cc(C(=O)Nc3cc(C)ccc3C)nc(N)n2)Sc2ccccc2N1 | > 100 µM (inactive) | > 100 µM (inactive) | > 100 µM (inactive) | > 100 µM (inactive) | > 100 µM (inactive) | > 100 µM (inactive) | > 100 µM (inactive) | > 100 µM (inactive) | > 100 µM (inactive) | > 100 µM (inactive) | > 100 µM (inactive) | > 100 µM (inactive) | > 100 µM (inactive) | > 100 µM (inactive) | > 100 µM (inactive) | > 100 µM (inactive) | > 100 µM (inactive) | – | – | –
Cc1ccc([N+](=O)[O-])cc1NC(=O)/C(=N/NC(=S)NN)C1SC(=S)NC1=O (stereo unspecified) | > 100 µM (inactive) | > 100 µM (inactive) | > 100 µM (inactive) | > 100 µM (inactive) | > 100 µM (inactive) | 78.9 µM (inactive) | > 100 µM (inactive) | 78.3 µM (inactive) | > 100 µM (inactive) | > 100 µM (inactive) | – | > 100 µM (inactive) | > 100 µM (inactive) | > 100 µM (inactive) | > 100 µM (inactive) | > 100 µM (inactive) | > 100 µM (inactive) | – | – | –
C[n+]1c(Cl)cn2c3nc4ccccc4nc3c([O-])c(C#N)c21 | > 92.7 µM (inactive) | > 100 µM (inactive) | > 100 µM (inactive) | > 10 µM (inactive) | > 100 µM (inactive) | > 100 µM (inactive) | > 10 µM (inactive) | > 100 µM (inactive) | > 100 µM (inactive) | > 100 µM (inactive) | > 100 µM (inactive) | 99.1 µM (inactive) | > 100 µM (inactive) | > 4.65 µM (inactive) | > 100 µM (inactive) | > 10 µM (inactive) | > 100 µM (inactive) | > 100 µM (inactive) | > 100 µM (inactive) | > 100 µM (inactive)
O=C(CC1(O)C(=O)Nc2c(Cl)cc(Cl)cc21)c1ccccc1 (stereo unspecified) | 59.4 µM (inactive) | 39.7 µM (inactive) | > 100 µM (inactive) | 55.1 µM (inactive) | 52.6 µM (inactive) | 33.6 µM (inactive) | – | 37 µM (inactive) | > 100 µM (inactive) | > 100 µM (inactive) | > 100 µM (inactive) | > 100 µM (inactive) | > 100 µM (inactive) | 60.3 µM (inactive) | > 100 µM (inactive) | > 100 µM (inactive) | 82.4 µM (inactive) | – | – | –
CC(C)=C1CCC(CN2CCOCC2)C1=O (stereo unspecified) | 17 µM (inactive) | 7.89 µM (inactive) | 4.66 µM (inactive) | 0.0454 µM (active) | 98.4 µM (inactive) | 2.34 µM (inactive) | 29.4 µM (inactive) | 4.12 µM (inactive) | 3.95 µM (inactive) | 3.58 µM (inactive) | 8.18 µM (inactive) | 9.84 µM (inactive) | 21.2 µM (inactive) | 15.9 µM (inactive) | 8.59 µM (inactive) | 6.21 µM (inactive) | 17.7 µM (inactive) | 16.4 µM (inactive) | 13.3 µM (inactive) | 17.4 µM (inactive)
C=CCOC(=O)C1CCC(=O)N1C(=O)C(Cl)Cl (stereo unspecified) | > 100 µM (inactive) | > 100 µM (inactive) | > 100 µM (inactive) | > 100 µM (inactive) | > 100 µM (inactive) | > 100 µM (inactive) | > 100 µM (inactive) | > 100 µM (inactive) | > 100 µM (inactive) | > 100 µM (inactive) | > 100 µM (inactive) | > 100 µM (inactive) | > 100 µM (inactive) | > 100 µM (inactive) | > 100 µM (inactive) | > 100 µM (inactive) | > 100 µM (inactive) | – | – | –
COc1c(C)cc2c(C(C)C)c(O)c(O)c(C=O)c2c1O | 20.6 µM (inactive) | 17.8 µM (inactive) | 16.4 µM (inactive) | 25.6 µM (inactive) | 28.8 µM (inactive) | 55.7 µM (inactive) | 18.3 µM (inactive) | 25.9 µM (inactive) | 35.3 µM (inactive) | 16.2 µM (inactive) | 18.9 µM (inactive) | 29.6 µM (inactive) | 18.2 µM (inactive) | 16 µM (inactive) | 27.7 µM (inactive) | 37 µM (inactive) | 27 µM (inactive) | – | – | –
O=c1/c(=C/c2cccc3ccccc23)sc2nc3ccccc3n12 | > 100 µM (inactive) | > 100 µM (inactive) | > 100 µM (inactive) | > 100 µM (inactive) | > 100 µM (inactive) | – | > 100 µM (inactive) | > 100 µM (inactive) | > 100 µM (inactive) | > 100 µM (inactive) | > 100 µM (inactive) | > 100 µM (inactive) | > 100 µM (inactive) | > 100 µM (inactive) | > 100 µM (inactive) | > 100 µM (inactive) | > 100 µM (inactive) | – | – | –
O=c1/c(=C/c2ccccc2F)sc2nc3ccccc3n12 | > 100 µM (inactive) | 67.3 µM (inactive) | – | 92.7 µM (inactive) | > 100 µM (inactive) | > 100 µM (inactive) | – | > 100 µM (inactive) | > 100 µM (inactive) | > 100 µM (inactive) | > 100 µM (inactive) | > 100 µM (inactive) | > 100 µM (inactive) | > 100 µM (inactive) | > 100 µM (inactive) | > 100 µM (inactive) | > 100 µM (inactive) | – | – | –
CCOc1ccccc1/N=C(/NC(=O)CC)SC | > 10 µM (inactive) | > 10 µM (inactive) | > 10 µM (inactive) | > 10 µM (inactive) | > 10 µM (inactive) | 68.4 µM (inactive) | > 10 µM (inactive) | > 10 µM (inactive) | > 10 µM (inactive) | 67.1 µM (inactive) | > 10 µM (inactive) | > 10 µM (inactive) | > 10 µM (inactive) | > 10 µM (inactive) | 65.8 µM (inactive) | > 10 µM (inactive) | > 10 µM (inactive) | – | – | –
C=C1C(=O)O[C@@H]2C[C@@H](C)[C@@H]3C=CC(=O)[C@@]3(C)[C@@H](O)[C@H]12 [HELENALIN] | 1.39 µM (inactive) | 1.45 µM (inactive) | 1.56 µM (inactive) | 0.242 µM (active) | 2.77 µM (inactive) | 0.851 µM (active) | 1.53 µM (inactive) | 0.525 µM (active) | – | 1.69 µM (inactive) | 1.52 µM (inactive) | 1.66 µM (inactive) | 1.63 µM (inactive) | 1.3 µM (inactive) | 1.36 µM (inactive) | 4.05 µM (inactive) | 3.13 µM (inactive) | 3.79 µM (inactive) | – | 3.95 µM (inactive)
